This is an account of results in patent US11014902B2, “MYC G-quadruplex stabilizing small molecules and their use” (The United States of America, as represented by the …, priority 2015, dated 2021).

“Also recorded” adds a separate entry of the source.

In assay [1] the test system is c-MYC exon 1 transcription in CA46 cells. Briefly: Exon specific qPCR assay, exon 1. The format is cell-based, human. The conditions noted are these: 10 μM, up to 48 hours. The text has this:
(§1) To confirm a G4 specific mechanism of action in cells, the CA46 Burkitt's Lymphoma line was used in an exon-specific assay, as previously reported (Boddupally, et al., J Med Chem 2012, 55, 6076). For most cell lines, 85-90% of c-Myc expression is controlled by the G4 located prior to exons 1 and 2 in the promoter. Furthermore, expression predominantly occurs following exon 2, due to a thousand-fold increase in transcription from this allele (Brown, et al., J Biol Chem 2011, 286, 41018). The CA46 Burkitt's Lymphoma cell line is an exception to this trend due to the existence of a chromosome (8:14) (Pelicci, et al., Proc Natl Acad Sci USA 1986, 83, 2984) translocation between exons 1 and 2, leaving exon 1 under G4 control. As a result, c-Myc expression from exon 2 is G4 independent (FIG. 3B). This renders the overall cell line resistant to G4-mediated c-Myc inhibition at the RNA and protein level, and proliferation should be uninhibited by G4-stabilizing agents.
CA46 cells were treated with ligands of interest or DMSO control at designated time points, washed in PBS, flash frozen, and RNA isolated using the Qiagen RNeasy Kit. RNA was quantified by NanoDrop, and 0.5 μg was reverse transcribed for use in qPCR. […]
(Real-time PCR tracks product formation cycle by cycle.)

Assay [2] deals with c-MYC expression in CA46 cells. The assay can be described thus: c-MYC expression in CA46 Burkitt's Lymphoma line. It counts as cell-based, human. The settings on record: CA46 line lacking G4 control.
Text: as §1, with “agents. […]” for “agents.”
Cell pellets/tissue were homogenized and lysed in RIPA buffer on ice for 1 h. Protein was quantitated by BCA, and equal protein was loaded onto 4-12% Bis-Tris Gels (Novex), electrophoresed at 150 V for 75 min to obtain sufficient separation, and transferred via the iBlot system (Life Technologies). […]

As for `Cc1ccc(NC(=O)c2c(C)oc3ccc(O)c(CN4CCCCCC4)c23)cc1` [Compound 1], the “transcription from exon 1” value in assay [1] is “sustained downregulation”. The “c-MYC expression / protein translation” value in assay [2] was “resistant to inhibition of c-Myc protein translation; also recorded: negligible changes”.
